# In US11453683B1, “KRas G12D inhibitors” (Mirati Therapeutics, Inc., priority 2019, dated 2022):
# Test system: KRas G12D-mediated phosphorylation of ERK
# Experiment: Inhibition of KRas G12D-mediated phosphorylation of ERK in AGS cells
# Type: cell-based
# Conditions: Homo sapiens; AGS cells expressing G12D, 3 hours, phospho-ERK normalized to GAPDH
# Summary of the method: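 Fixed, methanol-permeabilized; phospho-ERK (Thr202/Tyr204) by in-cell immunofluorescence normalized to GAPDH. Percent of DMSO control, IC50 by 4-parameter fit.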
row,SMILES,IC50
1,"Oc1cc(-c2ncc3c(N4C[C@H]5CC[C@@H](C4)N5)nc(N4CCC4)nc3c2F)c2ccccc2c1 [Example 119, 4-(2-(azetidin-1-yl)-4-((1R,5S)-3,8-diazabicyclo[3.2.1]octan-3-yl)-8-fluoropyrido[4,3-d]pyrimidin-7-yl)naphthalen-2-ol 2,2,2-trifluoroacetate]",3.7 µM
2,"Oc1cc(-c2ncc3c(N4C[C@H]5CC[C@@H](C4)N5)nc(OCC(F)(F)C(F)F)nc3c2F)c2ccccc2c1 [Example 52, 4-(4-((1R,5S)-3,8-diazabicyclo[3.2.1]octan-3-yl)-8-fluoro-2-(2,2,3,3-tetrafluoropropoxy)pyrido[4,3-d]pyrimidin-7-yl)naphthalen-2-ol]",8.38 µM
3,"CN(C)Cc1ccc(COCCNC(=O)O[C@@H]2C[C@@H](COc3nc(N4C[C@H]5CC[C@@H](C4)N5)c4cnc(-c5cccc6cccc(Cl)c56)c(F)c4n3)N(C)C2)cc1 [Example 308, (3R,5S)-5-(((4-((1R,5S)-3,8-diazabicyclo[3.2.1]octan-3-yl)-7-(8-chloronaphthalen-1-yl)-8-fluoropyrido[4,3-d]pyrimidin-2-yl)oxy)methyl)-1-methylpyrrolidin-3-yl (2-((4-((dimethylamino)methyl)benzyl)oxy)ethyl)carbamate]",> 5.56 µM
4,"Fc1c(-c2cccc3cccc(C(F)(F)F)c23)ncc2c(N3C[C@H]4CC[C@@H](C3)N4)nc(OC[C@@]34CCCN3C[C@H](F)C4)nc12 [Example 419, 4-((1R,5S)-3,8-diazabicyclo[3.2.1]octan-3-yl)-8-fluoro-2-(((2R,7aS)-2-fluorotetrahydro-1H-pyrrolizin-7a(5H)-yl)methoxy)-7-(8-(trifluoromethyl)naphthalen-1-yl)pyrido[4,3-d]pyrimidine]",2.78 µM
5,"Cc1ccc(O)cc1-c1ncc2c(N3C[C@H]4CC[C@@H](C3)N4)nc(OCC34CCCN3CCC4)nc2c1F [Example 256, 3-(4-((1R,5S)-3,8-diazabicyclo[3.2.1]octan-3-yl)-8-fluoro-2-((hexahydro-1H-pyrrolizin-7a-yl)methoxy)pyrido[4,3-d]pyrimidin-7-yl)-4-methylphenol]",> 16.7 µM
6,"CN1C[C@H](F)C[C@H]1COc1nc(N2C[C@H]3CC[C@@H](C2)N3)c2cnc(-c3cccc4cccc(Cl)c34)c(F)c2n1 [Example 115, 4-((1R,5S)-3,8-diazabicyclo[3.2.1]octan-3-yl)-7-(8-chloronaphthalen-1-yl)-8-fluoro-2-(((2S,4R)-4-fluoro-1-methylpyrrolidin-2-yl)methoxy)pyrido[4,3-d]pyrimidine]",9.51 µM
7,"Fc1c(-c2cccc3cccc(Cl)c23)ncc2c(N3C[C@H]4CC[C@@H](C3)N4)nc(OCC34CCCN3CC(F)(F)C4)nc12 (stereo partly drawn) [Example 93, 4-((1R,5S)-3,8-diazabicyclo[3.2.1]octan-3-yl)-7-(8-chloronaphthalen-1-yl)-2-((2,2-difluorotetrahydro-1H-pyrrolizin-7a(5H)-yl)methoxy)-8-fluoropyrido[4,3-d]pyrimidine bis(2,2,2-trifluoroacetate)]",> 16.7 µM
8,"Oc1ccc(C(F)(F)F)c(-c2ncc3c(N4C[C@H]5CC[C@@H](C4)N5)nc(OCC45CCCN4CCC5)nc3c2F)c1 [Example 373, 3-(4-((1R,5S)-3,8-diazabicyclo[3.2.1]octan-3-yl)-8-fluoro-2-((tetrahydro-1H-pyrrolizin-7a(5H)-yl)methoxy)pyrido[4,3-d]pyrimidin-7-yl)-4-(trifluoromethyl)phenol]",> 16.7 µM
9,"CO[C@@H]1C[C@@H]2CN(c3nc(OC[C@@]45CCCN4C[C@H](F)C5)nc4c(F)c(-c5cccc6cccc(Cl)c56)ncc34)C[C@H]1N2 [Example 397, 7-(8-chloronaphthalen-1-yl)-8-fluoro-2-((2-fluorotetrahydro-1H-pyrrolizin-7a(5H)-yl)methoxy)-4-((1R,5R,6R)-6-methoxy-3,8-diazabicyclo[3.2.1]octan-3-yl)pyrido[4,3-d]pyrimidine]",> 16.7 µM
10,"Fc1c(-c2c3ccccc3cc3[nH]ncc23)ncc2c(N3C[C@H]4CC[C@@H](C3)N4)nc(OCC34CCCN3CCC4)nc12 [Example 257, 4-(4-((1R,5S)-3,8-diazabicyclo[3.2.1]octan-3-yl)-8-fluoro-2-((hexahydro-1H-pyrrolizin-7a-yl)methoxy)pyrido[4,3-d]pyrimidin-7-yl)-1H-benzo[f]indazole]",0.531 µM
11,"COC(c1ccc(O)cc1-c1ncc2c(N3CC4CCC(C3)N4)nc(OC[C@@]34CCCN3C[C@H](F)C4)nc2c1F)C(F)(F)F (stereo in doubt) [Example 390, 3-(4-((1R,5S)-3,8-diazabicyclo[3.2.1]octan-3-yl)-8-fluoro-2-((2-fluorotetrahydro-1H-pyrrolizin-7a(5H)-yl)methoxy)pyrido[4,3-d]pyrimidin-7-yl)-4-(2,2,2-trifluoro-1-methoxyethyl)phenol]",6.11 µM
12,"CN1CCC[C@H]1COc1nc(N2CC3CCC(C=O)(C2)N3)c2cnc(-c3cc(O)cc4ccccc34)c(F)c2n1 (stereo partly drawn) [Example 214, 3-(8-fluoro-7-(3-hydroxynaphthalen-1-yl)-2-(((S)-1-methylpyrrolidin-2-yl)methoxy)pyrido[4,3-d]pyrimidin-4-yl)-3,8-diazabicyclo[3.2.1]octane-1-carbaldehyde]",> 16.7 µM
13,"Oc1cc(-c2ncc3c(N4C[C@H]5CC[C@@H](C4)N5)nc(OCC45CCCN4CCC5)nc3c2F)c2c(Cl)c(F)ccc2c1 [Example 245, 4-(4-((1R,5S)-3,8-diazabicyclo[3.2.1]octan-3-yl)-8-fluoro-2-((hexahydro-1H-pyrrolizin-7a-yl)methoxy)pyrido[4,3-d]pyrimidin-7-yl)-5-chloro-6-fluoronaphthalen-2-ol]",0.0234 µM
14,"Fc1c(-c2c(C(F)(F)F)ccc3[nH]ncc23)ncc2c(N3C[C@H]4CC[C@@H](C3)N4)nc(OCC34CCCN3CCC4)nc12 [Example 344, 4-((1R,5S)-3,8-diazabicyclo[3.2.1]octan-3-yl)-8-fluoro-2-((tetrahydro-1H-pyrrolizin-7a(5H)-yl)methoxy)-7-(5-(trifluoromethyl)-1H-indazol-4-yl)pyrido[4,3-d]pyrimidine]",8.07 µM
15,"CC(C)c1c(Cl)cc(O)cc1-c1ncc2c(N3C[C@H]4CC[C@@H](C3)N4)nc(OC[C@@]34CCCN3C[C@H](F)C4)nc2c1F [Example 291, 3-(4-((1R,5S)-3,8-diazabicyclo[3.2.1]octan-3-yl)-8-fluoro-2-(((2R,7aS)-2-fluorohexahydro-1H-pyrrolizin-7a-yl)methoxy)pyrido[4,3-d]pyrimidin-7-yl)-5-chloro-4-isopropylphenol]",0.0465 µM
16,"Cn1cncc1CCOc1nc(N2C[C@H]3CC[C@@H](C2)N3)c2cnc(-c3cc(O)cc4ccccc34)c(F)c2n1 [Example 110, 4-(4-((1R,5S)-3,8-diazabicyclo[3.2.1]octan-3-yl)-8-fluoro-2-(2-(1-methyl-1H-imidazol-5-yl)ethoxy)pyrido[4,3-d]pyrimidin-7-yl)naphthalen-2-ol]",> 16.7 µM
17,"CC(Oc1nc(N2C[C@H]3CC[C@@H](C2)N3)c2cnc(-c3cc(O)cc4ccccc34)c(F)c2n1)C1CCCN1C (stereo partly drawn) [Example 27, 4-(4-((1R,5S)-3,8-diazabicyclo[3.2.1]octan-3-yl)-8-fluoro-2-(1-(1-methylpyrrolidin-2-yl)ethoxy)pyrido[4,3-d]pyrimidin-7-yl)naphthalen-2-ol]",1.28 µM
